Key:
[1] = system: antipsychotic-naïve Cebus Apella monkeys; test: Side effects of BuTAC alone or with d-amphetamine; format: in vivo
Method: Seven male Cebus Apella monkeys were used for evaluation the anti-amphetamine effect and the side effect profile of BuTAC. These monkeys were never before administered antipsychotics and had never experienced EPS, but had previously been administered amphetamine. For further evaluation of the EPS potential of BuTAC, the compound was tested in four male and female monkeys, all sensitized to drug-induced EPS by earlier chronic treatment with classical antipsychotic drugs.
All monkeys received all treatments with at least one week between tests and thus served as their own control. To avoid extended physical contact with the experimenter, the cages were reduced in sized by moving the back wall of the cage closer to the front wall to lightly immobilize the monkey while injecting the test substance in the thigh. This was done at 9 am at test days. After the appropriate pre-treatment time, the monkeys were videotaped in their cages at predefined time points after drug injection.
The rated primate behaviours and symptoms were the following: unrest, stereotypy, arousal, sedation and bradykinesia (Table 1). All monkeys were videotaped in 90-sec. sessions at specific time points throughout the test sessions. The videotapes were rated for amphetamine-induced behaviours and EPS by two experienced raters blinded to the treatment of the animal by means of a rating scale adapted from Peacock et al. and previously described by Andersen et al. (Table 1). In case of any discrepancy between the two ratings, the recording in question was re-evaluated and a rating agreed upon. The monkeys were videotaped at t = 30, 60, 90, 135, 150, 165, 180, 240, 300 min after BuTAC (or vehicle) administration. For the combination studies, d-amphetamine was injected at t = 120 min. Oral dyskinesia was measured in counts per 90 sec. The severity of other behaviours and symptoms were rated on a scale ranging from 0 (not present) to 6 (extreme presence).
For evaluation of anti-amphetamine effects, BuTAC was tested in doses of 0.001, 0.003, 0.01 mg/kg in combination with 0.5 mg/kg of d-amphetamine. BuTAC or peanut oil vehicle was injected s.c. at approximately 9 a.m. Pre-treatment time before s.c. injection of amphetamine was 120 min. For evaluation of side effects, BuTAC was tested alone at doses of 0.001, 0.003 and 0.01 mg/kg in antipsychotic-naïve monkeys and at doses of 0.003 and 0.01 mg/kg in monkeys sensitized to extrapyramidal side effects (EPS) by earlier long-term treatment with first generation antipsychotics. […] None of the animals were sacrificed.
Data from the experiments where BuTAC was administered alone collected at t = 60, 180, 300 min are presented. For the d-amphetamine / BuTAC study, data collected at t(amp) = 60, 120 and 180 min (t = 180, 240, 300 min) are reported. Data were analyzed for overall treatment effects at each time point by means of the non-parametric Friedman’s test for repeated measures. The Student Newman-Keuls comparison procedure was used to analyze for specific dose effects. For all tests, the accepted level of significance was p<0.05.

[2] = molecular target: T1, human M5 muscarinic receptor (Homo sapiens, UniProt P08912); design: method as in Watt et al. 2013 [10]; conditions: ref Watt et al. 2013 [10], cited from earlier work
T1 construct: purchased PerkinElmer Life and Analytical Sciences, Boston, MA
T1 sequence (P08912 1-532): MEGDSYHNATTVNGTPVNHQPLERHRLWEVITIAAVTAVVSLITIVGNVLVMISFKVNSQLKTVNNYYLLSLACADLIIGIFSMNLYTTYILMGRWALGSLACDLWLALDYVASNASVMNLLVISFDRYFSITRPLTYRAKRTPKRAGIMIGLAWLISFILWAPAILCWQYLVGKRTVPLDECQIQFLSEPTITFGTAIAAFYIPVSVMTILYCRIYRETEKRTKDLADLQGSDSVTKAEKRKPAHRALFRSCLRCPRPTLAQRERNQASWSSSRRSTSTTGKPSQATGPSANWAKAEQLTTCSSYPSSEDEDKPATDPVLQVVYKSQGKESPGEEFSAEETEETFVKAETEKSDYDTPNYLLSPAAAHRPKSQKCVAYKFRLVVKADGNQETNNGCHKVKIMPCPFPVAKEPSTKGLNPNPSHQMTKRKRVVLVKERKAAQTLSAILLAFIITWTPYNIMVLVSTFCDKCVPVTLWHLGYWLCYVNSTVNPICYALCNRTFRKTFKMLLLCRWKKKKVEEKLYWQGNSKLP

[3] = molecular target: T2, human M3 muscarinic receptor (Homo sapiens, UniProt P20309); design: method as in Watt et al. 2013 [10]; conditions: antagonist mode, ref Watt et al. 2013 [10], cited from earlier work
T2 construct: purchased PerkinElmer Life and Analytical Sciences, Boston, MA

[4] = molecular target: T3, human M1 muscarinic receptor (Homo sapiens, UniProt P11229); design: method as in Watt et al. 2013 [10]; conditions: ref Watt et al. 2013 [10], cited from earlier work
T3 construct: purchased PerkinElmer Life and Analytical Sciences, Boston, MA
T3 sequence (P11229 1-460): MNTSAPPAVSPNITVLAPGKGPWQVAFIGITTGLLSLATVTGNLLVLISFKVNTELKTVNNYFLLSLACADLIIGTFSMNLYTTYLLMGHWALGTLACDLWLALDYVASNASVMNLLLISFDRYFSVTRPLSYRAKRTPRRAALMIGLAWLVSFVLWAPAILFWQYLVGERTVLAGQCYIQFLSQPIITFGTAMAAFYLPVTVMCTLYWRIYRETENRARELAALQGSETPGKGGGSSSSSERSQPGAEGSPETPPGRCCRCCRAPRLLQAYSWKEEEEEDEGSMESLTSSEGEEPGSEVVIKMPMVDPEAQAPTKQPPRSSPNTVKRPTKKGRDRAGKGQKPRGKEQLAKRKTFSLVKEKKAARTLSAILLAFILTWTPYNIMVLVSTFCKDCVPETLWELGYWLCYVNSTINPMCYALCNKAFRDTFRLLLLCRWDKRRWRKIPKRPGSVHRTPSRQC

[5] = system: monkeys; test: BuTAC-induced emesis and its inhibition by domperidone; format: in vivo, Cebus Apella; conditions: BuTAC 0.01 mg/kg alone; observed 300 minutes
Method: S1 Table. Emesis BuTAC / Domperidone
BuTAC 0.01 mg/kg / 1 in 7
Domperidone was purchased from Tocris Bioscience (Bristol, United Kingdom) and dissolved
in 0.9% saline. The compound was administered subcutaneously where after the animals

[6] = BuTAC 0.001 mg/kg / d-amphetamine 0.5 mg/kg
[7] = BuTAC alone 0.001, 0.003, 0.01 mg/kg
[8] = agonist mode, negative log-transformed
[9] = antagonist mode, negative log-transformed

T2 sequence (P20309 whole entry): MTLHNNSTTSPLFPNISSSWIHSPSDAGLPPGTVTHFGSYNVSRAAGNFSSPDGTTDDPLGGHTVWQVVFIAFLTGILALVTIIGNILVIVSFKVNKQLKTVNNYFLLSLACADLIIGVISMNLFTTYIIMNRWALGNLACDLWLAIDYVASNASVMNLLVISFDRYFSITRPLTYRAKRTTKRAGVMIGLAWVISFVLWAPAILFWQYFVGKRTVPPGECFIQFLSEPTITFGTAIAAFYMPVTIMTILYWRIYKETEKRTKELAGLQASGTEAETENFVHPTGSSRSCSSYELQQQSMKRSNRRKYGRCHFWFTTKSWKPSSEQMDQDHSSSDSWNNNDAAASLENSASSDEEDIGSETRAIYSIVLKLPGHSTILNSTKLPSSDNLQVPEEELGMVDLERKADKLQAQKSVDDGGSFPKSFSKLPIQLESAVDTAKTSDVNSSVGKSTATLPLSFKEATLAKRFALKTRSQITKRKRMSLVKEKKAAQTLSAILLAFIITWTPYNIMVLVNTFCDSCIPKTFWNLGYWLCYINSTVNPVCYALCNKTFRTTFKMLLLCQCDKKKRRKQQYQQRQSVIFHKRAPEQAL

## CCCCSc1nsnc1[C@H]1CN2CCC[C@H]1C2 [BuTAC, (5R,6R)-6-(3-butylthio-1,2,5-thiadiazol-4-yl)-1-azabicyclo[3.2.1]octane]
[1]; [6]
  Emetic events (vomiting) (monkeys affected): 0
  Sedation 2 ≤ X ≤ 5 (monkeys affected): 0
[1]; BuTAC 0.001 mg/kg / vehicle
  Salivation (monkeys affected): 0
  Sedation 2 ≤ X ≤ 5 (monkeys affected): 0
[1]; BuTAC 0.003 mg/kg / d-amphetamine 0.5 mg/kg
  Sedation 2 ≤ X ≤ 5 (monkeys affected): 0
[1]; BuTAC 0.003 mg/kg / vehicle
  Salivation (monkeys affected): 0
[1]; BuTAC 0.01 mg/kg (footnote of Table 3)
  Muscular relaxation (monkeys affected): all monkeys
[1]; BuTAC 0.01 mg/kg / d-amphetamine 0.5 mg/kg
  Sedation 2 ≤ X ≤ 5 (monkeys affected): 0
[1]; BuTAC 0.001 and 0.003 mg/kg (footnote of Table 3)
  Muscular relaxation (monkeys affected): one
[1]; BuTAC 0.003 and 0.01 mg/kg combined with d-amphetamine
  Muscular relaxation (monkeys affected): Six
[1]; BuTAC alone 0.01 mg/kg, after 180 and 300 min, p<0.05
  Unrest (rating 0–6): decrease in unrest
[1]; BuTAC alone 0.01 mg/kg, all three test times, p<0.05 relative to vehicle
  Sedation (rating 0–6): produced sedation
[1]; [7]
  Arousal: no significant effect
  Stereotypies, oral dyskinesia, bradykinesia or dystonia: not observed
[1]; BuTAC and d-amphetamine
  Sedation, oral dyskinesia, bradykinesia or dystonia: not observed
[1]; EPS naive monkeys
  EPS: did not induce EPS
[2]; [8]
  Rel pEC50: 7.63 ± 7.41 M
[2]; agonist mode
  % Emax: 10.77 ± 10.87%
[2]; [9]
  Rel pIC50: 8.29 ± 8.16 M
[2]; antagonist mode
  % Inhibition: 96.31 ± 3.87%
[3]; negative log-transformed
  Rel pIC50: 8.55 ± 8.59 M
[3]
  % Inhibition: 100.00 ± 0.00%
[4]; [8]
  Rel pEC50: 9.22±9.80 M
[4]; agonist mode
  % Emax: 33.56±6.29%
[4]; [9]
  Rel pIC50: 9.03±10.01 M
[4]; antagonist mode
  % Inhibition: 57.27±2.35%
[5]
  Emetic events (vomiting), monkeys with emesis: 7/7
